Laboratory results taken from patent US11814375B2, “Heterocyclic compounds” (Hoffmann-La Roche Inc., priority 2019, dated 2023).

The compounds below were run against T1, MAGL (Homo sapiens, UniProt Q99685) (assay: 2-AG assay: MAGL inhibitory activity by hydrolysis of 2-arachidonoylglycerol to arachidonic acid, followed by mass spectrometry). Conditions: 8 μM 2-arachidonoylglycerol, 15 min preincubation and 30 min reaction at RT, arachidonic acid/d8-arachidonic acid ratio by MS.
T1 sequence (Q99685 1-303): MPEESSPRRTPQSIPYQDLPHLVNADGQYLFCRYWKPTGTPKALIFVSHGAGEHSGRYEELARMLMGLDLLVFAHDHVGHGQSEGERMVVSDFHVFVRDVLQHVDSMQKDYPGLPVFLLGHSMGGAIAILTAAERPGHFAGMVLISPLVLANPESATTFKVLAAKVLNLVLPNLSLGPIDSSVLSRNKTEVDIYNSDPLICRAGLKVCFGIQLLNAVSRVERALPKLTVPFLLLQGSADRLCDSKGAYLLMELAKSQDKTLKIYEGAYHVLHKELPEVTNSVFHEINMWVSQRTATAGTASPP
Assay type: biochemical
Description: Compounds of formula (I) were profiled for MAGL inhibitory activity by determining the enzymatic activity by following the hydrolysis of the natural substrate 2-arachidonoylglycerol (2-AG) resulting in arachidonic acid, which can be followed by mass spectrometry. This assay is hereinafter abbreviated “2-AG assay”.
The 2-AG assay was carried out in 384 well assay plates (PP, Greiner Cat #784201) in a total volume of 20 μL. Compound dilutions were made in 100% DMSO (VWR Chemicals 23500.297) in a polypropylene plate in 3-fold dilution steps to give a final concentration range in the assay from 12.5 μM to […]. 0.25 μL compound dilutions (100% DMSO) were added to 9 μL MAGL in assay buffer (50 mM TRIS (GIBCO, 15567-027), 1 mM EDTA (Fluka, 03690-100 mL), 0.01% (v/v) Tween. After shaking, the plate was incubated for 15 min at RT. To start the reaction, 10 μL 2-arachidonoylglycerol in assay buffer was added. The final concentrations in the assay was […] and 8 μM 2-arachidonoylglyerol. After shaking and 30 min incubation at RT, the reaction was quenched by the addition of 40 μL of ACN containing 4 μM of d8-arachidonic acid. The amount of arachidonic acid was traced by an online SPE system (Agilent Rapidfire) coupled to a triple quadrupole mass spectrometer (Agilent 6460). A C18 SPE cartridge (G9205A) was used in an ACN/water liquid setup. The mass spectrometer was operated in negative electrospray mode following the mass transitions 303.1→259.1 for arachidonic acid and 311.1→267.0 for d8-arachidonic acid. The activity of the compounds was calculated based on the ratio of intensities [arachidonic acid/d8-arachidonic acid].

| Structure (SMILES) | IC50 |
| --- | --- |
| O=C1CO[C@H]2CCN(C(=O)N3CC(c4ccc(Oc5ccc(OC(F)(F)F)cc5)nc4)C3)C[C@H]2N1 [Example 49, (4aR,8aS)-6-(3-(6-(4-(Trifluoromethoxy)phenoxy)pyridin-3-yl)azetidine-1-carbonyl)hexahydro-2H-pyrido[4,3-b][1,4]oxazin-3(4H)-one] | 2.4 nM |
| O=C1CO[C@H]2CCN(C(=O)N3CC(c4ccc(Oc5ccc(Cl)cc5)nc4)C3)C[C@H]2N1 [Example 50, (4aR,8aS)-6-(3-(6-(4-Chlorophenoxy)pyridin-3-yl)azetidine-1-carbonyl)hexahydro-2H-pyrido[4,3-b][1,4]oxazin-3(4H)-one] | 4.3 nM |
| Cc1cc(Oc2ccc(C3CN(C(=O)N4CC[C@@H]5OCC(=O)N[C@@H]5C4)C3)cc2)c(C)nn1 [Example 51, (4aR,8aS)-6-[3-[4-(3,6-Dimethylpyridazin-4-yl)oxyphenyl]azetidine-1-carbonyl]-4,4a,5,7,8,8a-hexahydropyrido[4,3-b][1,4]oxazin-3-one] | 124 nM |
| O=C1CO[C@H]2CCN(C(=O)N3CC(c4ccc(Oc5ccccc5Cl)nc4)C3)C[C@H]2N1 [Example 52, (4aR,8aS)-6-(3-(6-(2-Chlorophenoxy)pyridin-3-yl)azetidine-1-carbonyl)hexahydro-2H-pyrido[4,3-b][1,4]oxazin-3(4H)-one] | 1.3 nM |
| O=C1CO[C@H]2CCN(C(=O)N3CC(c4ccc(Oc5cccc(Cl)c5)nc4)C3)C[C@H]2N1 [Example 53, (4aR,8aS)-6-(3-(6-(3-Chlorophenoxy)pyridin-3-yl)azetidine-1-carbonyl)hexahydro-2H-pyrido[4,3-b][1,4]oxazin-3(4H)-one] | 12.9 nM |
| O=C1CO[C@H]2CCN(C(=O)N3CCC(c4ccc(Oc5ccc(F)cc5)cc4)CC3)C[C@H]2N1 [Example 54, (4aR,8aS)-6-[4-[4-(4-Fluorophenoxy)phenyl]piperidine-1-carbonyl]-4,4a,5,7,8,8a-hexahydropyrido[4,3-b][1,4]oxazin-3-one] | 10.4 nM |
| O=C1CO[C@H]2CCN(C(=O)N3CC(O)(c4ccc(Oc5ccccc5)cc4)C3)C[C@H]2N1 [Example 55, (4aR,8aS)-6-[3-Hydroxy-3-(4-phenoxyphenyl)azetidine-1-carbonyl]-4,4a,5,7,8,8a-hexahydropyrido[4,3-b][1,4]oxazin-3-one] | 10.3 nM |
| O=C1CO[C@H]2CCN(C(=O)N3CC(O)(c4ccc(Oc5ccccc5)cn4)C3)C[C@H]2N1 [Example 56, (4aR,8aS)-6-[3-Hydroxy-3-(5-phenoxy-2-pyridyl)azetidine-1-carbonyl]-4,4a,5,7,8,8a-hexahydropyrido[4,3-b][1,4]oxazin-3-one] | 15.5 nM |
| O=C1CO[C@H]2CCN(C(=O)N3CCC(c4ccc(Oc5ccccc5)cc4)CC3)C[C@H]2N1 [Example 57, (4aR,8aS)-6-[4-(4-Phenoxyphenyl)piperidine-1-carbonyl]-4,4a,5,7,8,8a-hexahydropyrido[4,3-b][1,4]oxazin-3-one] | 17.8 nM |
| O=C1CO[C@H]2CCN(C(=O)N3CCN(c4ccc(Oc5ccccc5)cc4)CC3)C[C@H]2N1 [Example 58, (4aR,8aS)-6-[4-(4-Phenoxyphenyl)piperazine-1-carbonyl]-4,4a,5,7,8,8a-hexahydropyrido[4,3-b][1,4]oxazin-3-one] | 1100 nM |
